{"source": "patent US20220098674A1", "about": "“METHODS AND COMPOSITIONS FOR SELECTING A CANCER TREATMENT IN A SUBJECT SUFFERING FROM CANCER” (INSERM (INSTITUT NATIONAL DE LA SANTÉ ET DR LA RECHERCH …, priority 2019, published 2022)", "key": {"[1]": {"test_system": "RCC4+pVHL, RCC4 and RCC4 siVDAC1 cells", "test": "Sensitivity of RCC4 cell variants to sunitinib or 3BP treatment", "type": "cell-based", "method": "RCC4/pVHL and 786-O/pVHL cells were grown in Dulbecco's Modified Eagle's Medium (DMEM) (Gibco-BRL) supplemented with 10% fetal bovine serum with penicillin G (50 U/ml) and streptomycin sulfate (50 μg/ml). ACHN and A498 RCC cell lines were purchased from the ATCC (Mar. 3, 2013). The RCC10 cell line was a kind gift from Dr. W. H. Kaelin (Dana-Farber Cancer Institute, Boston, Mass.). An INVIVO2 200 anaerobic workstation (Ruskinn Technology Biotrace International Plc) set at 1% oxygen, 94% nitrogen and 5% carbon dioxide was used for hypoxic conditions.\nCells (5000-10000) were plated on 60 mm dishes and incubated at 37° C., 5% CO2 for colony formation. After 10 days, colonies were fixed with 10% (v/v) methanol for 15 min and stained with 5% Giemsa (Sigma) for 30 min for colony visualization.\nSunitinib, a vascular endothelial growth factor receptor inhibitor is widely used for patients with metastatic RCC. RCC4+pVHL−, RCC4− and RCC4 siVDAC1− cells were treated with 1.0 and 1.5 μM of sunitinib (Data not shown). […] As RCC4 cells with VDAC1-ΔC present a higher glycolysis than RCC4+pVHL cells, we used 3 Bromopyruvate (3BP), an halogenated analogue of pyruvic acid that enters cells like a lactate via monocarboxylic acid transporters, to block glycolysis."}, "RCC4 cells": {"test_system": "RCC4 cells", "test": "Cell death in RCC4 cells, siRNA to VDAC1 or AEP combined with 3BP", "type": "cell-based", "conditions": "3BP combined with siRNA to VDAC1 or AEP", "source_text": "In patients who progressively lose the primary cilium, this loss generated increased metabolism and greater resistance to cell death, promoting tumor growth. Since this loss was related to the presence of the cleaved form of VDAC1, the strategy would therefore be to prevent the cleavage of VDAC1 to restore the presence of the primary cilium. […] Indeed, we characterized a signature related to EMT that can explain the aggressive phenotype of the tumors of these patients. However, remodeling of metabolism was changed. Although cancer metabolism is a hallmark of cancer, it has been shown that aberrant metabolism supports EMT (47,48). […] It is therefore possible to envisage specific treatment for these groups: Temsirolimus (50) or Everolimus, specific inhibitors of mTOR (51) that block proliferation, in combination with small molecule inhibitors that prevent EMT such as EW-7197 or IN-1130, through a block in TGFβ1 and 2, have already been used in metastatic breast and lung cancer (52). By maintaining only one metabolic pathway, cancer cells with a GLI1+/IFT20+ signature offer a metabolic vulnerability that it would be wise to exploit. […] Finally, combination of an immune checkpoint inhibitor such as atezolizumab or nivolumab (an anti-PDL1 or PD1 inhibitor) alone or plus 3-bromopyruvate could be evaluated on PC+ patients with such reduced overall survival (FIG. 1). […]"}, "RCC4 siVDAC1 cells": {"test_system": "RCC4 siVDAC1 cells", "test": "Invasion assay (aggressiveness) of RCC4 siVDAC1 cells treated with 3BP", "type": "cell-based", "method": "The invasion assay was performed using cell culture inserts with 8.0 μm pore transparent PET membrane coated with 10 μg/mL fibronectin. Inserts were coated with 2 μg/μL of Matrigel and incubated for 3 h at 37° C. in a CO2 incubator. Briefly, overnight serum-starved cells (8×10^4 cells) were seeded into the top chamber in medium without FBS, while medium with 10% FBS was present in the bottom chamber. The cells were incubated for 24 h. Media and remaining cells were removed from the top chamber with a cotton swab and washed twice with PBS. The bottom chamber was aspirated and washed twice with PBS. Inserts were fixed with 4% PFA. Invasiveness was assayed in triplicate for each condition, in at least three independent experiments. Cells that invaded the Matrigel and migrated through the filter and adhered to the lower surface were stained for 10 min with 0.5% crystal violet in 25% methanol. Inserts were rinsed in distilled water until no additional stain leached and were air-dried overnight. Crystal violet was extracted from the invading cells by adding 600 μl of 0.1M sodium citrate in 10% acetic acid. Absorbance was measured spectrophotometrically at 585 nm using Spectronic GENESYS 5 (Milton Roy, Rochester, N.Y.). Microarray experiments Microarray experiments were already described (22). […]"}, "ccRCC": {"test_system": "ccRCC", "test": "Survival (PFS, OS) of sunitinib-treated ccRCC patients by GLI1/IFT20 primary cilium signature, clinical trial SUVEGIL", "type": "in vivo, human", "conditions": "ccRCC patients treated with sunitinib, no VDAC1-ΔC", "method": "FIG. 3. Patients with primary cilium signature present a higher immunogenicity compared to no primary cilium signature and a better response to immunotherapy. (A) Progression free-survival (PFS) and (B) Overall survival (OS) for the primary cilium signature was calculated from patients of the TCGA cohort C treated with sunitinib using the GLI1/IFT20 signature. Statistical significance (p-value) is indicated. The median survival is also indicated.\nThe Student's t-test was used to compare continuous variables and chi-square test, or Fisher's exact test (when the conditions for use of the χ2-test were not fulfilled), were used for categorical variables. To guarantee the independence of primary cilium as a prognostic factor, the multivariate analysis was performed using Cox regression adjusted to the stage and age. DFS was defined as the time from surgery to the appearance of metastasis. OS was defined as the time between surgery and the date of death from any cause, censoring those alive at last follow-up. The Kaplan-Meier method was used to produce survival curves and analyses of censored data were performed using Cox models. All analyses were performed using R software, version 3.2.2 (Vienna, Austria, https://www.r-project.org/).\nWe thus checked if PC+ patients with a GLI1+/IFT20+ signature and no VDAC1-ΔC are resistant or sensitive to sunitinib."}}, "data": [{"compound": "O=C(O)C(=O)CBr", "note": "[3BP, 3-bromopyruvate]", "values": [{"measurement": "sensitivity to 3BP", "setting": "[1]; cells presenting no VDAC1-ΔC or less VDAC1, 10 and 25 μM", "value": "highly sensitive"}, {"measurement": "cell death", "setting": "RCC4 cells", "value": "increased cell death"}, {"measurement": "aggressiveness (invasion) compared to control", "setting": "RCC4 siVDAC1 cells", "value": "strongly decreased"}]}, {"compound": "CCN(CC)CCNC(=O)c1c(C)[nH]c(/C=C2\\C(=O)Nc3ccc(F)cc32)c1C", "note": "[sunitinib, N-[2-(diethylamino)ethyl]-5-{[(3Z)-5-fluoro-2-oxo-2,3-dihydro-1H-indol-3-ylidene]methyl}-2,4-dimethyl-1H-pyrrole-3-carboxamide]", "values": [{"measurement": "sensitivity to sunitinib", "setting": "[1]; RCC4+pVHL, RCC4 and RCC4 siVDAC1 cells (all these cells), 1.0 and 1.5 μM", "value": "sensitive"}, {"measurement": "sensitivity to sunitinib", "setting": "[1]; RCC4 cells expressing no VDAC1-ΔC", "value": "less sensitive"}, {"measurement": "sensitivity to sunitinib, relative", "setting": "[1]; cells with VDAC1-ΔC versus RCC4+pVHL cells or cells with no VDAC1-ΔC or less VDAC1, 1.0 and 1.5 μM", "value": "slightly more sensitive"}, {"measurement": "survival (PFS and OS) of PC+ patients versus PC− groups", "setting": "ccRCC", "value": "lower survival"}]}]}
